Counter-ions that a name gives are not always drawn.
Tests used:
[1] = known β-lactamase inhibitors themselves; cited from earlier work
Klebsiella pneumoniae 1 = assay: in vitro MIC, chessboard microdilution, Klebsiella pneumoniae 1; assay type: cell-based; conditions: for MIC: Klebsiella pneumoniae, 1, alone, 18 hours, 37° C., read-out: MIC, antibiotic alone
Experimental: (§1) The combination substances A and B are diluted in DST broth OXOID in chessboard arrangement with the aid of microtitre system in 1:2 steps. All the concentrations of substance A are combined with all the concentrations of substance B and then inoculated with a standardised bacteria suspension (final concentration about 10^4 bacilli/ml). After incubation for 18 hours at 37° C., the inhibition of the bacterial growth is determined. The inhibiting concentrations are converted by the method of Kerry et al. (J. Antimicrob. […] By way of example, a number of the MIC values for the action of cefsulodin sodium, mecillinam, mezlocillin and gentamicin alone against a number of micro-organisms, as well as the MIC values for a number of mixtures in which synergism occurs, are reported in Table 1.

Staphylococcus aureus = assay: in vitro MIC, chessboard microdilution, Staphylococcus aureus; assay type: cell-based; conditions: for MIC: Staphylococcus aureus, alone, 18 hours, 37° C., read-out: MIC, antibiotic alone
Experimental: as §1

Proteus mirabilis 1077 = assay: in vitro MIC, chessboard microdilution, Proteus mirabilis 1077; assay type: cell-based; conditions: for MIC: Proteus mirabilis, 1077, alone, 18 hours, 37° C., read-out: MIC, antibiotic alone
Experimental: as §1

[2] = test system: Klebsiella pneumoniae 329; assay: systemic infection in mice, survival, Klebsiella pneumoniae 329; assay type: in vivo; conditions: fifth day
Experimental: (§2) The combination substances A and B are diluted in 1:3 to 1:3.3 steps such that the average concentration contains the respective amount of substance A and substance B corresponding to the ED50.
(§3) Female MF 2 mice weighing 18 to 22 g are divided at random into groups (n=20) and infected intraperitoneally with a standardised bacteria suspension which, according to strain, represents 5 to >20 LD50.
(§4) Immediately after the infection, and 3 hours later, the mice are treated in groups subcutaneously with dilutions of substances A and B as well as with combinations thereof. These combinations are prepared shortly before administration by mixing each dilution of substance A with each dilution of substance B. The survival rates are determined on the fifth day after the infection. The survival rates of mice which are determined with each of substances A and B alone are compared with those obtained with the combinations of these substances. A combination which has protected more animals from death than would be expected from the independent action of the substances, is designated as having synergistic action.
(§5) The survival rates, expressed as percentages of surviving animals, found in infections with a number of pure micro-organisms and in polyinfections is reported in Table 2 for cefsulodin sodium, mecillinam, mezlocillin, gentamicin and CGP 14 221/E, as well as for corresponding mixtures.

Escherichia coli 205 = assay: systemic infection in mice, survival, Escherichia coli 205; assay type: in vivo; conditions: fifth day
Experimental: as §2, §3, §4, §5

[3] = test system: Pseudomonas aeruginosa G 121; assay: in vitro MIC, chessboard microdilution, Pseudomonas aeruginosa G 121; assay type: cell-based; conditions: for MIC: Pseudomonas aeruginosa, G121, alone, 18 hours, 37° C., read-out: MIC, antibiotic alone
Experimental: as §1

[4] = test system: anaerobei, for example Bacteroides; conditions: cited from earlier work
[5] = test system: Klebsiella pneumoniae 327; assay: systemic infection in mice, survival, Klebsiella pneumoniae 327; assay type: in vivo; conditions: fifth day
Experimental: as §2, §3, §4, §5

Escherichia coli 576 = assay: in vitro MIC, chessboard microdilution, Escherichia coli 576; assay type: cell-based
Experimental: as §1

[6] = test system: Escherichia coli 205 RTEM^+; assay: systemic infection in mice, survival, Escherichia coli 205 RTEM+; assay type: in vivo; conditions: fifth day
Experimental: as §2, §3, §4, §5

[7] = test system: Klebsiella pneumoniae 1136; assay: in vitro MIC, chessboard microdilution, Klebsiella pneumoniae 1136; assay type: cell-based; conditions: for MIC: Klebsiella pneumoniae, 1136, alone, 18 hours, 37° C., read-out: MIC, antibiotic alone
Experimental: as §1

[8] = test system: enterobacteria, such as Escherichia coli and Klebsiella pneumoniae; conditions: cited from earlier work
[9] = test system: Pseudomonas aeruginosa 1140; assay: in vitro MIC, chessboard microdilution, Pseudomonas aeruginosa 1140; assay type: cell-based
Experimental: as §1

Escherichia coli 12-44 = assay: in vitro MIC, chessboard microdilution, Escherichia coli 12-44; assay type: cell-based; conditions: for MIC: Escherichia coli, 1244, alone, 18 hours, 37° C., read-out: MIC, antibiotic alone
Experimental: as §1

Proteus rettgeri 1121 = assay: in vitro MIC, chessboard microdilution, Proteus rettgeri 1121; assay type: cell-based; conditions: for MIC: Providencia rettgeri, 1121, read-out: MIC, antibiotic alone
Experimental: as §1

[10] = test system: Kiebsiella pneumoniae 1132; assay: in vitro MIC, chessboard microdilution, Klebsiella pneumoniae 1132; assay type: cell-based; conditions: for MIC: Klebsiella pneumoniae, 1132, alone, 18 hours, 37° C., read-out: MIC, antibiotic alone
Experimental: as §1

[11] = test system: Pseudomonas aeruginosa + Klebsiella pneumoniae; assay: experimental pyelonephritis (polyinfection) in mice, Pseudomonas aeruginosa + Klebsiella pneumoniae; assay type: in vivo; conditions: percentage of animals
Experimental: (§6) Mice are treated intravenously with 10 mg/kg of carrageenin. Seven days later they are infected with a standardised suspension of bacteria. […] Two days after the last treatment, the mice are sacrificed, dissected and examined for the number of germs in the kidneys.

[12] = test system: Klebsiella pneumoniae 329 + Escherichia coli 205; assay: systemic polyinfection in mice, survival, Klebsiella pneumoniae 329 + Escherichia coli 205; assay type: in vivo; conditions: fifth day
Experimental: as §2, §3, §4, §5

[13] = test system: Pseudomonas aeruginosa + Escherichia coli; assay: experimental pyelonephritis (polyinfection) in mice, Pseudomonas aeruginosa + Escherichia coli; assay type: in vivo; conditions: percentage of animals
Experimental: as §6

[14] = test system: Pseudomonas aeruginosa 410; assay: in vitro MIC, chessboard microdilution, Pseudomonas aeruginosa 410; assay type: cell-based
Experimental: as §1

[15] = test system: Gram-negative cocci, Gram-positive cocci and bacteria, and especially against Pseudomonas strains; conditions: carbenicillin-sensitive and carbenicillin-resistant Pseudomonas; cited from earlier work
[16] = test system: Pseudomonas aeruginosa 799A; assay: in vitro MIC, chessboard microdilution, Pseudomonas aeruginosa 799A; assay type: cell-based; conditions: for MIC: Pseudomonas aeruginosa, 799A, alone, 18 hours, 37° C., read-out: MIC, antibiotic alone
Experimental: as §1

[17] = in combination with Cefsulodin-Na 12.5 mcg/ml
[18] = in combination with Gentamicin 0.25 mcg/ml
[19] = in combination with Mecillinam 0.25 mcg/ml

CC1(C)[C@H](C(=O)O)N2C(=O)C[C@H]2S1(=O)=O [penicillanic acid 4,4-dioxide]
antibiotic action [1]: insignificant antibiotic action

CC1(C)S[C@@H]2[C@H](NC(=O)[C@H](NC(=O)N3CCN(S(C)(=O)=O)C3=O)c3ccccc3)C(=O)N2[C@H]1C(=O)O [Mezlocillin]
MIC (Klebsiella pneumoniae 1): 1.25 µg/mL
MIC, antibiotic B in combination with A (Klebsiella pneumoniae 1; in combination with Cefsulodin-Na 25 mcg/ml): 0.16 µg/mL
MIC (Staphylococcus aureus): 3.2 µg/mL
MIC, antibiotic B in combination with A (Staphylococcus aureus; in combination with Cefsulodin-Na 0.2 mcg/ml): 1.6 µg/mL
MIC (Proteus mirabilis 1077): 1 µg/mL
MIC, antibiotic B in combination with A (Proteus mirabilis 1077; [17]): 0.25 µg/mL
surviving animals, antibiotic alone ([2]; 300 mg/kg s.c.): 0%
surviving animals, antibiotic alone (Escherichia coli 205; 50 mg/kg s.c.): 0%
MIC [3]: 25 µg/mL
MIC, antibiotic B in combination with A ([3]; in combination with Cefsulodin-Na 0.04 mcg/ml): 12.5 µg/mL

NC(=O)c1cc[n+](CC2=C(C(=O)O)N3C(=O)[C@@H](NC(=O)[C@@H](c4ccccc4)S(=O)(=O)[O-])[C@H]3SC2)cc1 [Cefsulodin-Na, sodium salt of N-[7β-(α-sulfophenylacetamido)ceph-3-em-3-yl-methyl]-4'-carbamoylpyridinium-4-carboxylate]
MIC (Klebsiella pneumoniae 1): 50 µg/mL
MIC, antibiotic A in combination with B (Klebsiella pneumoniae 1; in combination with Mezlocillin 0.16 mcg/ml): 25 µg/mL
MIC (Staphylococcus aureus): 3.2 µg/mL
MIC, antibiotic A in combination with B (Staphylococcus aureus; in combination with Mezlocillin 1.6 mcg/ml): 0.2 µg/mL
antibiotic action against anaerobei [4]: relatively insignificant action
surviving animals, antibiotic alone ([5]; 50 mg/kg s.c.): 0%
surviving animals, antibiotic alone ([5]; 100 mg/kg s.c.): 0%
MIC (Proteus mirabilis 1077): 50 µg/mL
MIC, antibiotic A in combination with B (Proteus mirabilis 1077; in combination with Mezlocillin 0.25 mcg/ml): 12.5 µg/mL
MIC (Escherichia coli 576; Escherichia coli, 576, alone, 18 hours, 37° C., read-out: MIC, antibiotic alone): 64 µg/mL
MIC, antibiotic A in combination with B (Escherichia coli 576; [18]): 32 µg/mL
surviving animals, antibiotic alone ([6]; 40 mg/kg s.c.): 0%
surviving animals, antibiotic alone ([2]; 40 mg/kg s.c.): 0%
surviving animals, antibiotic alone ([2]; 50 mg/kg s.c.): 0%
surviving animals, antibiotic alone ([2]; 80 mg/kg s.c.): 5%
surviving animals, antibiotic alone (Escherichia coli 205; 25 mg/kg s.c.): 5%
surviving animals, antibiotic alone (Escherichia coli 205; 40 mg/kg s.c.): 10%
MIC [7]: 50 µg/mL
MIC, antibiotic A in combination with B [7, 19]: 12.5 µg/mL
antibiotic action against enterobacteria [8]: relatively insignificant action
MIC [3]: 1.2 µg/mL
MIC, antibiotic A in combination with B ([3]; in combination with Mezlocillin 12.5 mcg/ml): 0.04 µg/mL
MIC ([9]; Pseudomonas aeruginosa, 1140, alone, 18 hours, 37° C., read-out: MIC, antibiotic alone): 8 µg/mL
MIC, antibiotic A in combination with B ([9]; in combination with Gentamicin 4 mcg/ml): 2 µg/mL
MIC (Escherichia coli 12-44): 25 µg/mL
MIC, antibiotic A in combination with B (Escherichia coli 12-44; in combination with Mecillinam 0.12 mcg/ml): 12.5 µg/mL
MIC (Proteus rettgeri 1121; alone, 18 hours, 37° C.): 12.5 µg/mL
MIC, antibiotic A in combination with B (Proteus rettgeri 1121; in combination with Gentamicin 0.5 mcg/ml): 0.8 µg/mL
MIC, antibiotic A in combination with B (Proteus rettgeri 1121; in combination with Mecillinam 1.6 mcg/ml): 0.4 µg/mL
MIC [10]: 25 µg/mL
MIC, antibiotic A in combination with B [10, 19]: 6.2 µg/mL
Clearance of the kidneys from both micro-organisms, antibiotic alone ([11]; 25 mg/kg s.c.): 10%
surviving animals, antibiotic alone ([12]; 100 mg/kg s.c.): 0%
Clearance of the kidneys from both micro-organisms, antibiotic alone ([13]; 25 mg/kg s.c.): 0%
MIC ([14]; Pseudomonas aeruginosa, 410, alone, 18 hours, 37° C., read-out: MIC, antibiotic alone): 2 µg/mL
MIC, antibiotic A in combination with B [14, 18]: 0.06 µg/mL
antibiotic action [15]: directed against Gram-negative cocci, Gram-positive cocci and bacteria, and especially against Pseudomonas strains, both carbenicillin-sensitive and carbenicillin-resistant
MIC [16]: 1 µg/mL
MIC, antibiotic A in combination with B ([16]; in combination with Mecillinam 32 mcg/ml): 0.25 µg/mL

Gentamicin
MIC, antibiotic alone (Escherichia coli 576; alone, 18 hours, 37° C.): 2 µg/mL
MIC, antibiotic B in combination with A (Escherichia coli 576; in combination with Cefsulodin-Na 32 mcg/ml): 0.25 µg/mL
surviving animals, antibiotic alone ([2]; 0.2 mg/kg s.c.): 30%
MIC, antibiotic alone ([9]; alone, 18 hours, 37° C.): 32 µg/mL
MIC, antibiotic B in combination with A ([9]; in combination with Cefsulodin-Na 2 mcg/ml): 4 µg/mL
MIC, antibiotic alone (Proteus rettgeri 1121; alone, 18 hours, 37° C.): 1 µg/mL
MIC, antibiotic B in combination with A (Proteus rettgeri 1121; in combination with Cefsulodin-Na 0.8 mcg/ml): 0.5 µg/mL
Clearance of the kidneys from both micro-organisms, antibiotic alone ([11]; 0.5 mg/kg s.c.): 0%
Clearance of the kidneys from both micro-organisms, antibiotic alone ([11]; 2.5 mg/kg s.c.): 40%
Clearance of the kidneys from both micro-organisms, antibiotic alone ([13]; 1 mg/kg s.c.): 0%
MIC, antibiotic alone ([14]; alone, 18 hours, 37° C.): 0.5 µg/mL
MIC, antibiotic B in combination with A ([14]; in combination with Cefsulodin-Na 0.06 mcg/ml): 0.25 µg/mL

CC1(C)S[C@@H]2[C@H](/N=C/N3CCCCCC3)C(=O)N2[C@H]1C(=O)O [Mecillinam]
surviving animals, antibiotic alone ([2]; 300 mg/kg s.c.): 0%
surviving animals, antibiotic alone (Escherichia coli 205; 1 mg/kg s.c.): 0%
surviving animals, antibiotic alone (Escherichia coli 205; 2 mg/kg s.c.): 0%
MIC [7]: 1 µg/mL
MIC, antibiotic B in combination with A [7, 17]: 0.25 µg/mL
MIC (Escherichia coli 12-44): 2 µg/mL
MIC, antibiotic B in combination with A (Escherichia coli 12-44; [17]): 0.12 µg/mL
MIC (Proteus rettgeri 1121; alone, 18 hours, 37° C.): 3.2 µg/mL
MIC, antibiotic B in combination with A (Proteus rettgeri 1121; in combination with Cefsulodin-Na 0.4 mcg/ml): 1.6 µg/mL
MIC [10]: 1 µg/mL
MIC, antibiotic B in combination with A ([10]; in combination with Cefsulodin-Na 6.2 mcg/ml): 0.25 µg/mL
MIC [16]: 1000 µg/mL
MIC, antibiotic B in combination with A ([16]; in combination with Cefsulodin-Na 0.25 mcg/ml): 32 µg/mL

O=C(O)[C@H]1/C(=C/CO)O[C@@H]2CC(=O)N21 [clavulanic acid]
antibiotic action [1]: insignificant antibiotic action

CN(C)CCn1nnnc1SCC1=C(C(=O)O)N2C(=O)[C@@H](NC(=O)Cc3csc(N)n3)[C@H]2SC1 [CGP 14221/E, 7[2(2-lmino-1,3-thiazolin-4-yl)acetamido3-[1(3-dimethylamino)-tetrazol-5-ylthio-methyl3-cephem-4-carboxylic acid hydrochloride]
surviving animals, antibiotic alone ([5]; 20 mg/kg s.c.): 0%
surviving animals, antibiotic alone ([5]; 40 mg/kg s.c.): 0%
surviving animals, antibiotic alone ([6]; 1.2 mg/kg s.c.): 10%
surviving animals, antibiotic alone (Escherichia coli 205; 0.62 mg/kg s.c.): 0%
surviving animals, antibiotic alone (Escherichia coli 205; 2.5 mg/kg s.c.): 0%
surviving animals, antibiotic alone ([12]; 20 mg/kg s.c.): 0%

Reference: US4263280A, “Synergistic mixtures” (priority 1978, dated 1981)
